pIC50: −log10 of the molar value. ≈ marks a conversion by molar mass, not a printed value.
Legend:
[1] = target: T1, Carnitine O-palmitoyltransferase 1, muscle isoform (Homo sapiens, UniProt Q92523); assay: SUPPLEMENTARY: Inhibition of Carnitine palmitoyltransferase 1, muscle isoform; design: species or system Muscle tissue
T1 sequence (Q92523 whole entry): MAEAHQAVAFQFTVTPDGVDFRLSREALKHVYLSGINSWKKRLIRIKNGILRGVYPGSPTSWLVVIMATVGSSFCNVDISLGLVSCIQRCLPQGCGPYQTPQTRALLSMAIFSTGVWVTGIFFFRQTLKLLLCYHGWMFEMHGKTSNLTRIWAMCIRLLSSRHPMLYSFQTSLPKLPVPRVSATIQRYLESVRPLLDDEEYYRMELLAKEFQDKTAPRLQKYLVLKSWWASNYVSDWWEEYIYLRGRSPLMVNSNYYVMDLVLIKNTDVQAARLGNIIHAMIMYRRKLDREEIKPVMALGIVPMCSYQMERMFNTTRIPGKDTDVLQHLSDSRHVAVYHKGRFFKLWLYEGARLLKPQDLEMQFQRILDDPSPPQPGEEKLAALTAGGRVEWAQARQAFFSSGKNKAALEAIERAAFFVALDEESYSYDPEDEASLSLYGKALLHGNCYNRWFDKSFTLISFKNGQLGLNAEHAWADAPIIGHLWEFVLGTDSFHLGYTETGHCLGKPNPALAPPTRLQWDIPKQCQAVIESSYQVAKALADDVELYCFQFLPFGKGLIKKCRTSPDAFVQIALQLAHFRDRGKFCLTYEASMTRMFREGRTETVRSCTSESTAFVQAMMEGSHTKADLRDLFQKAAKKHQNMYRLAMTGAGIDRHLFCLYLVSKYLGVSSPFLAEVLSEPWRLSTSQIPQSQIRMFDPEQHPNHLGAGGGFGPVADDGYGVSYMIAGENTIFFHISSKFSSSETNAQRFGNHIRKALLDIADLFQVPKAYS

[2] = target: T2, Carnitine O-palmitoyltransferase 2, mitochondrial (Homo sapiens, UniProt P23786); assay: (§1) SUPPLEMENTARY: Inhibition of Carnitine palmitoyltransferase 2
T2 sequence (P23786 whole entry): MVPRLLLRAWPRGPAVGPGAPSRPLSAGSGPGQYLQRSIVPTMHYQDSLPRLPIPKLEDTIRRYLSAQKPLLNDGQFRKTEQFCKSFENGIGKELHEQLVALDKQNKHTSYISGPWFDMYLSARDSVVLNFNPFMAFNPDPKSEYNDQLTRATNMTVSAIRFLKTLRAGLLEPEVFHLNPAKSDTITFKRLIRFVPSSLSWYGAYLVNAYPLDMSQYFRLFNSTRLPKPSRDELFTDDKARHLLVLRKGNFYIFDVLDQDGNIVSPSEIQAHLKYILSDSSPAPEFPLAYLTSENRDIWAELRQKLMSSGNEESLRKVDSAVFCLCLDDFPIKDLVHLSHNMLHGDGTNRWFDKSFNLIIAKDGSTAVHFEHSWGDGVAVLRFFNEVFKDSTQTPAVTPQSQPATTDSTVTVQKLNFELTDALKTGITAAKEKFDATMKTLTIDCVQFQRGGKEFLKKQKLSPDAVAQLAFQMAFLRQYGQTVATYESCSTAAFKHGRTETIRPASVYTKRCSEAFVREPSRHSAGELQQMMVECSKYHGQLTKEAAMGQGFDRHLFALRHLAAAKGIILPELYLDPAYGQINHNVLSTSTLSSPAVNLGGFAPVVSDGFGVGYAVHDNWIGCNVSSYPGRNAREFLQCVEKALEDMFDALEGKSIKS

[3] = target: T3, Carnitine O-palmitoyltransferase 2, mitochondrial (Rattus norvegicus, UniProt P18886); assay: as §1
T3 sequence (P18886 whole entry): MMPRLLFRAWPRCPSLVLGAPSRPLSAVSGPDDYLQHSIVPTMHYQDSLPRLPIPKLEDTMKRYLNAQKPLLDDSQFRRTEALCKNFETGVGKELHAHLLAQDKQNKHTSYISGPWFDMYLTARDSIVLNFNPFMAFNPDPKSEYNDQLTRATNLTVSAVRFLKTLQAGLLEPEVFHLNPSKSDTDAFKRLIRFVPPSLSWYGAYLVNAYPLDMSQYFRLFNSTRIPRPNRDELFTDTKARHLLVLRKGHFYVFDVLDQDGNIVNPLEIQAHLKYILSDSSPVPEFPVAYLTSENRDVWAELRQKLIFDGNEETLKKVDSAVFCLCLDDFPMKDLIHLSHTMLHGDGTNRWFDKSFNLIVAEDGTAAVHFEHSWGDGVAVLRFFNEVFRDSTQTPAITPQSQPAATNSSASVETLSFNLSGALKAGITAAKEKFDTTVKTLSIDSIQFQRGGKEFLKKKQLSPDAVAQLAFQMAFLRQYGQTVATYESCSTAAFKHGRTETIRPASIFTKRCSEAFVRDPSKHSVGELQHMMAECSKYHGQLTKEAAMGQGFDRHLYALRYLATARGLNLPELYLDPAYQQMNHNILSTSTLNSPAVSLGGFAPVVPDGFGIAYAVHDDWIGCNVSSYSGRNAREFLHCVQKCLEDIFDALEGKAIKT

[4] = target: T4, Carnitine O-palmitoyltransferase 1, liver isoform (Homo sapiens, UniProt P50416); assay: (§2) SUPPLEMENTARY: Inhibition of Carnitine palmitoyltransferase 1, liver isoform
T4 sequence (P50416 whole entry): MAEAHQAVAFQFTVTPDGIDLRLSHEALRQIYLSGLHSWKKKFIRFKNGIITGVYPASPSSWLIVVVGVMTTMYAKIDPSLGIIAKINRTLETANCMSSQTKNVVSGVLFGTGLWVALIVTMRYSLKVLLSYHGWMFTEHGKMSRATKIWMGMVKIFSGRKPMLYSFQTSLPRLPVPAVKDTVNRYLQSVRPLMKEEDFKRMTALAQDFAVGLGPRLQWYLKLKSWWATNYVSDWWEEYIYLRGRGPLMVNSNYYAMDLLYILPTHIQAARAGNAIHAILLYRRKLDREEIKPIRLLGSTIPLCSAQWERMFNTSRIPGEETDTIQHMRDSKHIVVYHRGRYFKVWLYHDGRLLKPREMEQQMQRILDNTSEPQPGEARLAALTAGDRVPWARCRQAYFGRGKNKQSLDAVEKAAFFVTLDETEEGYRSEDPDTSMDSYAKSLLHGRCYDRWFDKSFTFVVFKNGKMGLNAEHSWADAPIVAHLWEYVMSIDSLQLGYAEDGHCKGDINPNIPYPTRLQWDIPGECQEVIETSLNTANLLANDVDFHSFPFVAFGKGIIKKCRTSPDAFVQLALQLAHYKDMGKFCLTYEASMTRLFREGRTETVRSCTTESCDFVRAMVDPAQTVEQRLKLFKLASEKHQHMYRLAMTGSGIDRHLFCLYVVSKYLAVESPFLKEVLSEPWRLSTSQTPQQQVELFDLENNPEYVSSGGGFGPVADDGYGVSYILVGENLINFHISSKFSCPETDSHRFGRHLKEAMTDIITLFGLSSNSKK

[5] = target: T5, Carnitine O-palmitoyltransferase 1, liver isoform (Rattus norvegicus, UniProt P32198); assay: as §2
T5 sequence (P32198 whole entry): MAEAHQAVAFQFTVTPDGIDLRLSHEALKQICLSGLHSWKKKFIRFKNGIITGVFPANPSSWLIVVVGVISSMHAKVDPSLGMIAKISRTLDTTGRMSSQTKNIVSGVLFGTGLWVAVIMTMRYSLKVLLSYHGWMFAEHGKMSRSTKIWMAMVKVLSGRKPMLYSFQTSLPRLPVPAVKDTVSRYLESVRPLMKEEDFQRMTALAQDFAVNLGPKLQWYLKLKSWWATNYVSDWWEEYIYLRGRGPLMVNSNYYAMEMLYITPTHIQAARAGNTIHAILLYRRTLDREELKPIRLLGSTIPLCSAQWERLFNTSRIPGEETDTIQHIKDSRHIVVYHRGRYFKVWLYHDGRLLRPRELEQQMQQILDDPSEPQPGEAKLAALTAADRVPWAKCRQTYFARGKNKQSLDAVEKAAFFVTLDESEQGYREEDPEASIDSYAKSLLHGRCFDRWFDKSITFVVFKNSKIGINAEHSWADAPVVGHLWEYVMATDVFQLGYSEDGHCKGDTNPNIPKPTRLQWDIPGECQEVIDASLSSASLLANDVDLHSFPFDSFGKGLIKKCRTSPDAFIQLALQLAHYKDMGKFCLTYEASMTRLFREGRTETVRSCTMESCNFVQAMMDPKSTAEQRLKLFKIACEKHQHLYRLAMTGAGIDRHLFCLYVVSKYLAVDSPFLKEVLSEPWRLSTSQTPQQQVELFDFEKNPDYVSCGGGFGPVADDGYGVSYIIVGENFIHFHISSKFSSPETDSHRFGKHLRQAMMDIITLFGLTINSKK

[6] = SUPPLEMENTARY: Lyophilisation Solubility Assay (LYSA); format: physicochemical; details: read-out: Kinetic_solubility
[7] = SUPPLEMENTARY: PAMPA permeability assay; format: physicochemical; details: read-out: Permeability

| SMILES | pIC50 [1] | pIC50 [2] | pIC50 [3] | pIC50 [4] | pIC50 [5] | solubility kinetic [6] [µg/mL] | Papp [7] [×10⁻⁶ cm/s] |
| --- | --- | --- | --- | --- | --- | --- | --- |
| COc1ccc(Cl)cc1S(=O)(=O)N1CCCc2ccc(C(=O)Nc3ccc(C(=O)O)cc3)cc21 | 5.23 | 5.67 | 5.54 | 7.57 | 7.49 | 8 (≈ 16 µM) | 3.2 |
| COc1ccc(Cl)cc1S(=O)(=O)c1nn(CCC(=O)O)c2ccc(C(=O)Nc3ccccc3)cc12 | 4.31 | < 4.00 | < 4.00 | 7.83 | 8.18 | 25 (≈ 48.6 µM) | 0.67 |
| COc1ccc(Cl)cc1S(=O)(=O)c1c[nH]c2ccc(C(=O)Nc3ccccc3)cc12 | < 4.00 | < 4.00 | < 4.00 | 6.94 | 7.08 | 1 (≈ 2.27 µM) | 0.06 |
| COc1ccc(Cl)cc1CN1C(=O)OC(C)(C)c2ccc(C(=O)Nc3ccc(C(=O)O)c(Cl)c3)cc21 | 5.91 | 5.39 | 4.62 | 6.61 | 7.29 | 30 (≈ 56.7 µM) | 1.1 |
| O=C(NC1CC1)c1cncc(-c2noc([C@H]3CCCCN3C(=O)COc3ccccc3)n2)c1 | < 4.00 | < 4.00 | < 4.00 | 6.95 | 6.00 | 138 (≈ 308 µM) | 3.2 |
| COc1ccc(Cl)cc1S(=O)(=O)N1COc2c(Cl)cc(C(=O)Nc3ccc(C(=O)O)cc3)cc21 | < 4.00 | 4.47 | 4.17 | 7.36 | 7.46 | 4 (≈ 7.64 µM) | 3.92 |
| O=C(Cn1cc(-c2ccccc2)c2ccccc21)Nc1ccc(C(=O)O)cc1 | 6.29 | 4.81 | < 4.00 | 6.32 | 5.86 | 19 (≈ 51.3 µM) | 1.73 |
| COc1ccc(Cl)cc1S(=O)(=O)N1CCCCc2ccc(C(=O)Nc3ccc(C(=O)O)c(F)c3)cc21 | 5.04 | 4.55 | 4.33 | 6.88 | 6.87 | 345 (≈ 647 µM) | 2.15 |
| O=C(Nc1ccc(C(=O)O)c(F)c1)c1ccc2c(c1)N(S(=O)(=O)c1cccc(Cl)c1)CCO2 | 5.16 | 4.73 | < 4.00 | 6.68 | 7.14 | 4 (≈ 8.15 µM) | 2.21 |
| COc1ccc(Cl)cc1S(=O)(=O)N1CCOc2c(F)cc(C(=O)Nc3ccc(C(=O)O)cc3)cc21 | < 4.00 | 4.95 | < 4.00 | 7.11 | 7.34 | 5 (≈ 9.6 µM) | 2.44 |
| COc1ccc(Cl)cc1S(=O)(=O)N1CCOc2ccc(C(=O)Nc3ccc(C(=O)O)cc3)cc21 | 4.83 | 4.57 | 4.44 | 7.40 | 7.45 | 8 (≈ 15.9 µM) | 2.7 |
| COc1ccc(Cl)cc1S(=O)(=O)c1nn(C)c2ccc(C(=O)Nc3ccc(C(=O)O)cc3)cc12 | < 4.00 | < 4.00 | < 4.00 | 7.30 | 7.19 | 8 (≈ 16 µM) | 1.89 |
| Cc1cc(C)cc(S(=O)(=O)c2nn(CC(=O)O)c3ccc(C(=O)Nc4ccccc4)cc23)c1 | 5.05 | < 4.00 | < 4.00 | 7.47 | 7.66 | 71 (≈ 153 µM) | 0.01 |
| CCn1cc(S(=O)(=O)c2cc(Cl)ccc2OC)c2cc(C(=O)Nc3ccc(C(=O)O)cc3)ccc21 | 5.71 | 6.27 | 5.73 | 7.13 | 7.27 | 15 (≈ 29.2 µM) | 0.67 |
| COc1ccc(Cl)cc1S(=O)(=O)N1CCNc2ccc(C(=O)Nc3ccc(C(=O)O)cc3)cc21 | 4.93 | < 4.00 | < 4.00 | 7.15 | 6.72 | 1 (≈ 1.99 µM) | 0.81 |
| COc1ccc(Cl)cc1S(=O)(=O)N1CCc2c(C)cc(C(=O)Nc3nc(CC(=O)O)cs3)cc21 | < 4.00 | < 4.00 | < 4.00 | 7.71 | 7.92 | 249 (≈ 477 µM) | 2.03 |

Source: ChEMBL document CHEMBL3431459, “Roche carnitine palmitoyltransferase modulator screening data (supplementary data associated with the publication CHEMBL2216752)”
